In PubChem BioAssay (NCI):
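A five-concentration, 48-hour dose response in 96-well plates underlies each endpoint, interpolated linearly between surrounding concentrations. TGI: concentration producing complete growth inhibition.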

Legend:
Test in all cases: NCI-60 cell line screen, 48 h
SF-268 CNS = test system: SF-268 CNS
UO-31 renal = test system: UO-31 renal
MDA-N = test system: MDA-N
RXF 393 renal = test system: RXF 393 renal
MALME-3M melanoma = test system: MALME-3M melanoma
CAKI-1 renal = test system: CAKI-1 renal
OVCAR-3 ovarian = test system: OVCAR-3 ovarian
NCI/ADR-RES ovarian = test system: NCI/ADR-RES ovarian
RPMI-8226 leukemia = test system: RPMI-8226 leukemia
TK-10 renal = test system: TK-10 renal
SF-295 CNS = test system: SF-295 CNS
HCC-2998 colon = test system: HCC-2998 colon
UACC-257 melanoma = test system: UACC-257 melanoma
HCT-116 colon = test system: HCT-116 colon
U251 CNS = test system: U251 CNS
ACHN renal = test system: ACHN renal
T-47D breast = test system: T-47D breast
SNB-75 CNS = test system: SNB-75 CNS
M14 melanoma = test system: M14 melanoma
MOLT-4 leukemia = test system: MOLT-4 leukemia
EKVX NSCLC = test system: EKVX NSCLC
SK-OV-3 ovarian = test system: SK-OV-3 ovarian
MDA-MB-231 breast = test system: MDA-MB-231 breast
KM12 colon = test system: KM12 colon
PC-3 prostate = test system: PC-3 prostate
BT-549 breast = test system: BT-549 breast
786-0 renal = test system: 786-0 renal
HOP-62 NSCLC = test system: HOP-62 NSCLC
NCI-H226 lung = test system: NCI-H226 lung
CCRF-CEM leukemia = test system: CCRF-CEM leukemia
SK-MEL-28 melanoma = test system: SK-MEL-28 melanoma
HT29 colon = test system: HT29 colon
OVCAR-8 ovarian = test system: OVCAR-8 ovarian
MCF7 breast = test system: MCF7 breast
SF-539 CNS = test system: SF-539 CNS
SW-620 colon = test system: SW-620 colon
UACC-62 melanoma = test system: UACC-62 melanoma
SN12C renal = test system: SN12C renal
COLO 205 colon = test system: COLO 205 colon
NCI-H23 lung = test system: NCI-H23 lung
HS 578T breast = test system: HS 578T breast
SK-MEL-2 melanoma = test system: SK-MEL-2 melanoma
SR leukemia = test system: SR leukemia
OVCAR-4 ovarian = test system: OVCAR-4 ovarian
HCT-15 colon = test system: HCT-15 colon
SNB-19 CNS = test system: SNB-19 CNS
OVCAR-5 ovarian = test system: OVCAR-5 ovarian
MDA-MB-435 = test system: MDA-MB-435
A549 NSCLC = test system: A549 NSCLC
K-562 leukemia = test system: K-562 leukemia
DU-145 prostate = test system: DU-145 prostate
LOX IMVI melanoma = test system: LOX IMVI melanoma
IGROV1 ovarian = test system: IGROV1 ovarian
A498 renal = test system: A498 renal
NCI-H522 lung = test system: NCI-H522 lung
NCI-H460 lung = test system: NCI-H460 lung
HL-60(TB) leukemia = test system: HL-60(TB) leukemia
SK-MEL-5 melanoma = test system: SK-MEL-5 melanoma

Compound `C[C@@H]1S[C@H](c2c(F)cccc2Cl)n2c1nc1ccccc12` has a TGI (SF-268 CNS) of 36.3 µM, a TGI (UO-31 renal) of 24.2 µM and a TGI (MDA-N) of 21.5 µM. It also gave a TGI (RXF 393 renal) of 28.8 µM, a TGI (MALME-3M melanoma) of 30.6 µM and a TGI (CAKI-1 renal) of 76.5 µM. The TGI (OVCAR-3 ovarian) was 28.2 µM, the TGI (NCI/ADR-RES ovarian) was 31.4 µM and the TGI (RPMI-8226 leukemia) was 40.2 µM. It also gave a TGI (TK-10 renal) of over 100 µM, a TGI (SF-295 CNS) of 42 µM and a TGI (HCC-2998 colon) of 26.5 µM. It also gave a TGI (UACC-257 melanoma) of 38.5 µM, a TGI (HCT-116 colon) of 16.5 µM and a TGI (U251 CNS) of 22.7 µM. For the same compound, the TGI (ACHN renal) was over 100 µM, the TGI (T-47D breast) was 79.5 µM and the TGI (SNB-75 CNS) was 60.8 µM. The TGI (M14 melanoma) was 42 µM, the TGI (MOLT-4 leukemia) was 32 µM and the TGI (EKVX NSCLC) was 56 µM. The TGI (SK-OV-3 ovarian) was 55.9 µM, the TGI (MDA-MB-231 breast) was 27 µM and the TGI (KM12 colon) was 20.5 µM. It also gave a TGI (PC-3 prostate) of 23.7 µM, a TGI (BT-549 breast) of 28.2 µM and a TGI (786-0 renal) of 28.4 µM. For the same compound, the TGI (HOP-62 NSCLC) was 29.4 µM, the TGI (NCI-H226 lung) was 37 µM and the TGI (CCRF-CEM leukemia) was 42.6 µM. The TGI (SK-MEL-28 melanoma) was 26.5 µM, the TGI (HT29 colon) was 29.3 µM and the TGI (OVCAR-8 ovarian) was over 100 µM. It also gave a TGI (MCF7 breast) of 81.8 µM, a TGI (SF-539 CNS) of 28.9 µM and a TGI (SW-620 colon) of 27.2 µM. For the same compound, the TGI (UACC-62 melanoma) was 29.7 µM, the TGI (SN12C renal) was 29 µM and the TGI (COLO 205 colon) was 23.6 µM. The TGI (NCI-H23 lung) was 28 µM, the TGI (HS 578T breast) was 41.6 µM and the TGI (SK-MEL-2 melanoma) was 29.3 µM. The TGI (SR leukemia) was 67.7 µM, the TGI (OVCAR-4 ovarian) was 37 µM and the TGI (HCT-15 colon) was 19.3 µM. For the same compound, the TGI (SNB-19 CNS) was 88.9 µM, the TGI (OVCAR-5 ovarian) was over 100 µM and the TGI (MDA-MB-435) was 25.1 µM. For the same compound, the TGI (A549 NSCLC) was 61.3 µM, the TGI (K-562 leukemia) was over 100 µM and the TGI (DU-145 prostate) was over 100 µM. The TGI (LOX IMVI melanoma) was 25.3 µM and the TGI (IGROV1 ovarian) was 59.5 µM.
In the case of `CSc1c(C#N)c(=O)n(N)c2c1c(C)nn2-c1ccccc1`, the TGI (SF-268 CNS) is reported as over 100 µM, the TGI (A498 renal) is reported as 65.8 µM and the TGI (UO-31 renal) is reported as 51.9 µM. It also gave a TGI (MDA-N) of over 100 µM, a TGI (RXF 393 renal) of 69.1 µM and a TGI (MALME-3M melanoma) of 70.2 µM. For the same compound, the TGI (NCI-H522 lung) was over 100 µM, the TGI (NCI-H460 lung) was over 100 µM and the TGI (CAKI-1 renal) was 43 µM. The TGI (OVCAR-3 ovarian) was 77 µM, the TGI (NCI/ADR-RES ovarian) was 62.9 µM and the TGI (RPMI-8226 leukemia) was 63.9 µM. It also gave a TGI (TK-10 renal) of over 100 µM, a TGI (HCC-2998 colon) of over 100 µM and a TGI (HL-60(TB) leukemia) of 94.5 µM. For the same compound, the TGI (UACC-257 melanoma) was 60.9 µM, the TGI (HCT-116 colon) was 56.2 µM and the TGI (U251 CNS) was over 100 µM. For the same compound, the TGI (T-47D breast) was 81 µM, the TGI (SNB-75 CNS) was 85.4 µM and the TGI (M14 melanoma) was over 100 µM. For the same compound, the TGI (MOLT-4 leukemia) was 85.1 µM, the TGI (SK-MEL-5 melanoma) was 28.7 µM and the TGI (EKVX NSCLC) was 78 µM. For the same compound, the TGI (SK-OV-3 ovarian) was 93.8 µM, the TGI (MDA-MB-231 breast) was 57.9 µM and the TGI (KM12 colon) was over 100 µM. The TGI (PC-3 prostate) was 76.7 µM, the TGI (BT-549 breast) was over 100 µM and the TGI (786-0 renal) was over 100 µM. The TGI (NCI-H226 lung) was 70 µM, the TGI (CCRF-CEM leukemia) was 76.3 µM and the TGI (SK-MEL-28 melanoma) was over 100 µM. For the same compound, the TGI (HT29 colon) was 65.4 µM, the TGI (OVCAR-8 ovarian) was 54 µM and the TGI (MCF7 breast) was 39.2 µM. The TGI (SF-539 CNS) was 55.5 µM, the TGI (SW-620 colon) was over 100 µM and the TGI (UACC-62 melanoma) was 75.8 µM. For the same compound, the TGI (SN12C renal) was over 100 µM, the TGI (COLO 205 colon) was 32.5 µM and the TGI (NCI-H23 lung) was 52.7 µM. It also gave a TGI (HS 578T breast) of over 100 µM, a TGI (SK-MEL-2 melanoma) of 63.3 µM and a TGI (SR leukemia) of 71.8 µM. The TGI (OVCAR-4 ovarian) was 96.1 µM, the TGI (HCT-15 colon) was 85.4 µM and the TGI (SNB-19 CNS) was over 100 µM. It also gave a TGI (OVCAR-5 ovarian) of over 100 µM, a TGI (MDA-MB-435) of over 100 µM and a TGI (A549 NSCLC) of 61.6 µM. It also gave a TGI (K-562 leukemia) of 87 µM, a TGI (DU-145 prostate) of over 100 µM and a TGI (LOX IMVI melanoma) of 52.6 µM.
